Measurements reported in patent US10227357B2, “Compounds and methods for kinase modulation, and indications therefor” (Plexxikon Inc., priority 2012, dated 2019).

molecular target: T1, c-kit kinase (Homo sapiens, UniProt P10721); assay: c-Kit biochemical assay, AlphaScreen, 10 μM ATP; settings: c-kit biochemical inhibitory activity; read-out: Biochemical activity (IC50 μM) Kit
T1 construct: The c-kit (or kinase domain thereof) is an active kinase in AlphaScreen; poly-Histidine tag (in-house protein only) (cleaved yes); host or cells: E. coli BL21(DE3)RIL, co-expressed with PTP1B
T1 sequence (P10721 26-976): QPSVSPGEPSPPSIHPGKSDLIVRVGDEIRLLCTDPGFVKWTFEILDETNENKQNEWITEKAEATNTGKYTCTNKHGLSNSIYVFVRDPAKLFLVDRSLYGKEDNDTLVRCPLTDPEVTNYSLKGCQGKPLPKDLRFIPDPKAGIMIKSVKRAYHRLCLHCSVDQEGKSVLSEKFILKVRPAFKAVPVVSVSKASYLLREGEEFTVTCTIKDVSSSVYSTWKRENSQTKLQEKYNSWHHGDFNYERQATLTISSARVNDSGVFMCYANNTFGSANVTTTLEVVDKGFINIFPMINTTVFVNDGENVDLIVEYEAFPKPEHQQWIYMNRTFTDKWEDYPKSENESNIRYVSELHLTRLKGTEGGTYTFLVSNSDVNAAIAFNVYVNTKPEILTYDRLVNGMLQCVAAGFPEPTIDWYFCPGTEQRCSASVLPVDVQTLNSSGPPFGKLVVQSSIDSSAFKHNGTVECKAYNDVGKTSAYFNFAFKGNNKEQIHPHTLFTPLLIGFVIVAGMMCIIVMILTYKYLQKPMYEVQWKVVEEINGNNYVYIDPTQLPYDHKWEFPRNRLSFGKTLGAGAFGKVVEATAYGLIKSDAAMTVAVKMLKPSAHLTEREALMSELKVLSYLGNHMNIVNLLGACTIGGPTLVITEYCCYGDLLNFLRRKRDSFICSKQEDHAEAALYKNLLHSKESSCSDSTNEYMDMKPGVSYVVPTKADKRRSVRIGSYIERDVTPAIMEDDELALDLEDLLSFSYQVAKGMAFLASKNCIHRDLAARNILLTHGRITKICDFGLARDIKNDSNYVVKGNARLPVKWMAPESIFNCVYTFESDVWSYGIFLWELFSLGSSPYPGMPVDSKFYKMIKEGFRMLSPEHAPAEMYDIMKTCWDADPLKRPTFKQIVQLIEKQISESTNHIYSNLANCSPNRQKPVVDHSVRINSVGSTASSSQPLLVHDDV
Method: IC50 values are determined with respect to inhibition of c-Kit kinase activity, where inhibition of phosphorylation of a peptide substrate is measured as a function of compound concentration. Compounds to be tested were dissolved in DMSO to a concentration of 20 mM. These were diluted 30 μl into 120 μl of DMSO (4 mM) and 1 μl was added to an assay plate. These were then serially diluted 1:3 (50 μl to 100 μl DMSO) for a total of 8 points. Plates were prepared such that each kinase reaction is 20 μl in 1× kinase buffer (50 mM HEPES, pH 7.2, 5 mM MgCl2, 5 mM MnCl2, 0.01% NP-40, 0.2% BSA), 5% DMSO and 10 μM ATP. […] C-kit kinase was at 0.1 ng per sample. After incubation of the kinase reaction for 1 hour at room temperature, 5 μl of donor beads (Streptavidin coated beads (Perkin Elmer Life Science) final concentration 1 μg/ml) in stop buffer (50 mM EDTA in 1× kinase buffer) was added, the sample was mixed and incubated for 20 minutes at room temperature before adding 5 μl of acceptor beads (PY20 coated beads (Perkin Elmer Life Science) final concentration 1 μg/ml) in stop buffer. The samples were incubated for 60 minutes at room temperature and the signal per well was read on AlphaQuest reader. […] The signal vs. compound concentration was used to determine the IC50.
Complementary DNA cloned from various human tissues were purchased from Invitrogen, and these were used as substrates in the PCR reactions. Specific custom synthetic oligonucleotide primers were designed to initiate the PCR product, and also to provide the appropriate restriction enzyme cleavage sites for ligation with the plasmids. The entire sequence encoding the enzyme was made through a gene synthesis procedure, using custom synthetic oligonucleotides covering the entire coding sequence (Invitrogen, see below).
The plasmid used for ligation with the kinase-encoding inserts was derivative of pET (Novagen) for expression using E. coli. The Kit kinase was engineered to include a Histidine tag for purification using metal affinity chromatography. The kinase-encoding plasmid was engineered as bicistronic mRNA to co-express a second protein that modifies the kinase protein during its expression in the host cell. Protein tyrosine phosphatase 1B (PTP), was co-expressed for dephosphorylation of the phospho-Tyrosines.
For protein expression, the plasmid containing the Kit gene was transformed into E. coli strains BL21(DE3)RIL and transformants selected for growth on LB agar plates containing appropriate antibiotics. Single colonies were grown overnight at 37° C. in 200 ml TB (Terrific broth) media. 16×1 L of fresh TB media in 2.8 L flasks were inoculated with 10 ml of overnight culture and grown with constant shaking at 37° C. Once cultures reached an absorbance of 1.0 at 600 nm, IPTG was added and cultures were allowed to grow for a further 12 to 18 hrs at temperatures ranging from 12-30° C. Cells were harvested by centrifugation and pellets frozen at […] until ready for lysis.
For protein Purification; frozen E. coli cell pellets were resuspended in lysis buffer and lysed using standard mechanical methods. Protein was purified via poly-Histidine tags using immobilized metal affinity purification IMAC. The Kit kinase was purified using a 3 step purification process utilizing; IMAC, size exclusion chromatography and ion exchange chromatography. The poly-Histidine tag was removed using Thrombin (Calbiochem).

`N#Cc1c[nH]c2ncnc(N3CCN(C(=O)NCc4ccc(F)cc4)CC3)c12` [P-0158, 4-(5-cyano-7H-pyrrolo[2,3-d]pyrimidin-4-yl)-N-[(4-fluorophenyl)methyl]piperazine-1-carboxamide] and `O=C(NCc1ccc(F)cc1)N1CCN(c2ncnc3[nH]c(CC4CC4)cc23)CC1` [P-0210, 4-[6-(cyclopropylmethyl)-7H-pyrrolo[2,3-d]pyrimidin-4-yl]-N-[(4-fluorophenyl)methyl]piperazine-1-carboxamide] fall in the same range of IC50: 10 to 200 µM for the first, 10 to 200 µM for the second.

First: CCc1ccc(C(=O)NC2CCN(c3ncnc4[nH]ccc34)CC2)cc1 [P-0530, 4-ethyl-N-[1-(7H-pyrrolo[2,3-d]pyrimidin-4-yl)-4-piperidyl]benzamide]
Second: CCc1ccc(NC(=O)NC2CCN(c3ncnc4[nH]ccc34)CC2)cc1 [P-0535, 1-(4-ethylphenyl)-3-[1-(7H-pyrrolo[2,3-d]pyrimidin-4-yl)-4-piperidyl]urea]
The IC50 of the first is higher: 10 to 200 µM for the first, 1 to 10 µM for the second.

First: C[C@H](NC(=O)N1CC2CCC1CN2c1ncnc2cc(-c3ccc(F)cc3)sc12)c1cccc(Cl)c1 (stereo partly drawn) [P-0565, N-[(1S)-1-(3-chlorophenyl)ethyl]-5-[6-(4-fluorophenyl)thieno[3,2-d]pyrimidin-4-yl]-2,5-diazabicyclo[2.2.2]octane-2-carboxamide]
Second: Cc1ccc(S(=O)(=O)Nc2ccc(-c3cc4ncnc(N5CCN(C(=O)Nc6ccccc6)CC5)c4s3)cc2)cc1 [P-0625, N-phenyl-4-[6-[4-(p-tolylsulfonylamino)phenyl]thieno[3,2-d]pyrimidin-4-yl]piperazine-1-carboxamide]
The IC50 of the first is lower: 1 to 10 µM for the first, 10 to 200 µM for the second. The first is the more potent here.

First: CCOc1ccc(NC(=O)N2CCN(c3ncnc4[nH]ccc34)CC2)cc1 [P-0201, N-(4-ethoxyphenyl)-4-(7H-pyrrolo[2,3-d]pyrimidin-4-yl)piperazine-1-carboxamide]
Second: CCc1ccc(NC(=O)N2CCN(c3ncnc4[nH]ccc34)CC2)cc1 [P-0202, N-(4-ethylphenyl)-4-(7H-pyrrolo[2,3-d]pyrimidin-4-yl)piperazine-1-carboxamide]
The IC50 of the first is lower: 1 to 10 µM for the first, 10 to 200 µM for the second.

`Fc1ccc(-c2cc3c(-c4ccc(F)cc4)ncnc3[nH]2)cc1` [P-0395, 4,6-bis(4-fluorophenyl)-7H-pyrrolo[2,3-d]pyrimidine] and `Cc1cc2c(-c3ccc(NS(=O)(=O)c4ccccc4F)c(F)c3)ncnc2[nH]1` [P-0348, 2-fluoro-N-[2-fluoro-4-(6-methyl-7H-pyrrolo[2,3-d]pyrimidin-4-yl)phenyl]benzenesulfonamide] fall in the same range of IC50: 0.0001 to 1 µM for the first, 0.0001 to 1 µM for the second.

`O=S(=O)(NC1CCN(c2ncnc3[nH]ccc23)CC1)c1ccccc1` [P-0533, N-[1-(7H-pyrrolo[2,3-d]pyrimidin-4-yl)-4-piperidyl]benzenesulfonamide] and `O=C(NC(=O)c1ccccc1)NC1CCN(c2ncnc3[nH]ccc23)CC1` [P-0522, N-[[1-(7H-pyrrolo[2,3-d]pyrimidin-4-yl)-4-piperidyl]carbamoyl]benzamide] fall in the same range of IC50: 10 to 200 µM for the first, 10 to 200 µM for the second.

`O=C(C1CCCCC1)N1CCN(c2ncnc3[nH]ccc23)CC1` [P-0195, cyclohexyl-[4-(7H-pyrrolo[2,3-d]pyrimidin-4-yl)piperazin-1-yl]methanone] and `O=C(NC1CCCCC1)N1CCN(c2ncnc3[nH]ccc23)CC1` [P-0204, N-cyclohexyl-4-(7H-pyrrolo[2,3-d]pyrimidin-4-yl)piperazine-1-carboxamide] fall in the same range of IC50: 10 to 200 µM for the first, 10 to 200 µM for the second.

`Cc1cc2c(-c3ccc(NS(=O)(=O)C4CC4)cc3)ncnc2[nH]1` [P-0377, N-[4-(6-methyl-7H-pyrrolo[2,3-d]pyrimidin-4-yl)phenyl]cyclopropanesulfonamide] and `COc1cc2ncnc(-c3ccc(NS(=O)(=O)C4CC4)cc3)c2cc1OC` [P-0280, N-[4-(6,7-dimethoxyquinazolin-4-yl)phenyl]cyclopropanesulfonamide] fall in the same range of IC50: 10 to 200 µM for the first, 10 to 200 µM for the second.

`Cc1ccc(-c2cc3c(C4=CCC(NS(=O)(=O)c5ccc(OC(F)(F)F)cc5)CC4)ncnc3[nH]2)cn1` (centres unmarked) [P-0544, N-[4-[6-(6-methyl-3-pyridyl)-7H-pyrrolo[2,3-d]pyrimidin-4-yl]cyclohex-3-en-1-yl]-4-(trifluoromethoxy)benzenesulfonamide] and `Cc1ccc(-c2cc3c(N4CCC(NS(=O)(=O)c5ccc(OC(F)(F)F)cc5)CC4)ncnc3[nH]2)cn1` [P-0459, N-[1-[6-(6-methyl-3-pyridyl)-7H-pyrrolo[2,3-d]pyrimidin-4-yl]-4-piperidyl]-4-(trifluoromethoxy)benzenesulfonamide] fall in the same range of IC50: 10 to 200 µM for the first, 10 to 200 µM for the second.

`CCCS(=O)(=O)NC1CCN(c2ncnc3[nH]ccc23)CC1` [P-0532, N-[1-(7H-pyrrolo[2,3-d]pyrimidin-4-yl)-4-piperidyl]propane-1-sulfonamide] and `CCCC(=O)NC1CCN(c2ncnc3[nH]ccc23)CC1` [P-0527, N-[1-(7H-pyrrolo[2,3-d]pyrimidin-4-yl)-4-piperidyl]butanamide] fall in the same range of IC50: 10 to 200 µM for the first, 10 to 200 µM for the second.

Compared with `Cc1ccc(S(=O)(=O)Nc2ccc(-c3ncnc4cc(-c5cnn(C)c5)sc34)cc2)cc1` [P-0628, 4-methyl-N-[4-[6-(1-methylpyrazol-4-yl)thieno[3,2-d]pyrimidin-4-yl]phenyl]benzenesulfonamide], `N#Cc1ccc(-c2cc3c(N4CCC(NS(=O)(=O)c5ccc(OC(F)(F)F)cc5)CC4)ncnc3[nH]2)cc1` [P-0464, N-[1-[6-(4-cyanophenyl)-7H-pyrrolo[2,3-d]pyrimidin-4-yl]-4-piperidyl]-4-(trifluoromethoxy)benzenesulfonamide] is higher in IC50: 0.0001 to 1 µM for the first, 10 to 200 µM for the second. The first is the more potent here.

`O=C(NCc1ccc(C(F)(F)F)nc1)N1CCN(c2ncnc3[nH]c(-c4ccc(Cl)cc4)cc23)CC1` [P-0180, 4-[6-(4-chlorophenyl)-7H-pyrrolo[2,3-d]pyrimidin-4-yl]-N-[[6-(trifluoromethyl)-3-pyridyl]methyl]piperazine-1-carboxamide] and `COc1ccc(NC(=O)N2CCN(c3ncnc4[nH]c(-c5ccccc5)cc34)CC2)cc1` [P-0240, N-(4-methoxyphenyl)-4-(6-phenyl-7H-pyrrolo[2,3-d]pyrimidin-4-yl)piperazine-1-carboxamide] fall in the same range of IC50: 10 to 200 µM for the first, 10 to 200 µM for the second.

Compared with `C[C@H]1CN(c2ncnc3[nH]c(-c4ccncc4)cc23)CCN1C(=O)Nc1ccc(N(C)C)cc1` [P-0046, (2S)-N-(4-dimethylaminophenyl)-2-methyl-4-[6-(4-pyridyl)-7H-pyrrolo[2,3-d]pyrimidin-4-yl]piperazine-1-carboxamide], `C[C@H]1CN(c2ncnc3[nH]c(-c4ccncc4)cc23)CCN1C(=O)Nc1ccc(OC(F)(F)F)cc1` [P-0043, (2S)-2-methyl-4-[6-(4-pyridyl)-7H-pyrrolo[2,3-d]pyrimidin-4-yl]-N-[4-(trifluoromethoxy)phenyl]piperazine-1-carboxamide] is lower in IC50: 1 to 10 µM for the first, 0.0001 to 1 µM for the second. The second is the more potent here.

`O=C(c1cc2c(N3CCN(C(=O)NCc4ccc(F)cc4)CC3)ncnc2[nH]1)C1CC1` [P-0209, 4-[6-(cyclopropanecarbonyl)-7H-pyrrolo[2,3-d]pyrimidin-4-yl]-N-[(4-fluorophenyl)methyl]piperazine-1-carboxamide] and `COc1cccc([C@H](C)NC(=O)N2CCN(c3ncnc4cc(N5CCOCC5)sc34)CC2)c1` [P-0548, N-[(1S)-1-(3-methoxyphenyl)ethyl]-4-(6-morpholinothieno[3,2-d]pyrimidin-4-yl)piperazine-1-carboxamide] fall in the same range of IC50: 1 to 10 µM for the first, 1 to 10 µM for the second.

`O=C(NC1CCN(c2ncnc3[nH]ccc23)CC1)C1CCCCC1` [P-0528, N-[1-(7H-pyrrolo[2,3-d]pyrimidin-4-yl)-4-piperidyl]cyclohexanecarboxamide] gave an IC50 of 10 to 200 µM.
